Drawing on article PMC6348446 (Journal of Medicinal Chemistry, 2018), this text covers BRD9 degradation, BRD7 degradation and remaining activity for four molecules.

Read-outs that look alike come from different tables or passages of the source.

In one experiment the target is T1, BRD9 (Homo sapiens, UniProt Q9H8M2).
T1 construct: Western blot analysis of BRD9 and BRD7 levels after treatment of HeLa cells; endogenous in cells; host or cells: HeLa
T1 sequence (Q9H8M2 1-597): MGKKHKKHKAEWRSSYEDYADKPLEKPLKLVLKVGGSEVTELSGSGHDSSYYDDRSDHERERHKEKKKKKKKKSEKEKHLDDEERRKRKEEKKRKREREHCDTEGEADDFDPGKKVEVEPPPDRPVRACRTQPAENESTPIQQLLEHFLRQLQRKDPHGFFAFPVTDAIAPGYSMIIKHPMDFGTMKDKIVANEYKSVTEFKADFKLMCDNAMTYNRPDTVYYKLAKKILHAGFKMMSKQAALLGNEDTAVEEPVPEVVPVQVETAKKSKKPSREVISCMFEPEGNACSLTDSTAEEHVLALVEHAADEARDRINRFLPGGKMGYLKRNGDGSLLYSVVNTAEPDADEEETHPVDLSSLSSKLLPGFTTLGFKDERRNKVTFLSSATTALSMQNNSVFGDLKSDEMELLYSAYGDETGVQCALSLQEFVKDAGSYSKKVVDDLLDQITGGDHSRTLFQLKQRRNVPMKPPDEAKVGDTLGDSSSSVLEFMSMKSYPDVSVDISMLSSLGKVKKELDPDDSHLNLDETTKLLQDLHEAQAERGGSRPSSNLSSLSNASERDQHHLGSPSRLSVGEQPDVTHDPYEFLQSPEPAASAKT
As to the kind of experiment: Western blot of BRD9 levels in HeLa cells after compound treatment. In kind it is cell-based. The settings on record: 1 μM compound; for BRD9 degradation: HeLa cells; for remaining activity at 1 µM: Table 2, % of total protein remaining relative to 0.1% DMSO vehicle, HeLa cell lysates. On the technique in general: A western blot detects proteins with antibodies after separation by electrophoresis.

A further experiment deals with T2, BRD7 (Homo sapiens, UniProt Q9NPI1).
T2 construct: Western blot analysis of BRD9 and BRD7 levels after treatment of HeLa cells; endogenous in cells; host or cells: HeLa
T2 sequence (Q9NPI1 1-651): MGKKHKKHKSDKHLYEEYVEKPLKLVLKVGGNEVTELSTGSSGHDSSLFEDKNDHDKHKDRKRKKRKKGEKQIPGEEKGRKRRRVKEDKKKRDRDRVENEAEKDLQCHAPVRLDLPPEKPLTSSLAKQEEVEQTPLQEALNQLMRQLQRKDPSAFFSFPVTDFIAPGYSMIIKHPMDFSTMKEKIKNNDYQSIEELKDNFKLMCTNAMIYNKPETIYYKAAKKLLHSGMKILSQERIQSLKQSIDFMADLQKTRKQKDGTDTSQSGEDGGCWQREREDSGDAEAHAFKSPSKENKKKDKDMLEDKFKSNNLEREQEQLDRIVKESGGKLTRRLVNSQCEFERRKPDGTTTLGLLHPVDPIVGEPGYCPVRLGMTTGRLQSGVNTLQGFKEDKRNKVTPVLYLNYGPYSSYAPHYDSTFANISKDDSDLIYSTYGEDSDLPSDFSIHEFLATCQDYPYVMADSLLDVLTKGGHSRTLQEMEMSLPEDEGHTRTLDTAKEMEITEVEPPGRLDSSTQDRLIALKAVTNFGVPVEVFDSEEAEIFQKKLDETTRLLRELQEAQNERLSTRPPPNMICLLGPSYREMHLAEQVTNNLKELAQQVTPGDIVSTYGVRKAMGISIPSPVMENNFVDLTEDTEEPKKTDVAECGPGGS
As to the kind of experiment: Western blot of BRD7 levels in HeLa cells after compound treatment. Format: cell-based. The settings on record: 1 μM compound; for BRD7 degradation: HeLa cells; for remaining activity at 1 µM: Table 2, % of total protein remaining relative to 0.1% DMSO vehicle, HeLa cell lysates. On the procedure: HeLa and Hek293 cells were seeded at either 0.3 × 10^6 or 0.5 × 10^6 cells per well in 6-well plate in 2 mL of medium. At 80% confluency, cells were treated with compounds at the desired concentration, with final DMSO concentration of 0.1% v/v. Cells were incubated at 37 °C and 5% of CO2 for the desired time before harvesting. For protein extraction from adherent cells, cells were washed twice with DPBS (Gibco) and lysed with RIPA buffer (Sigma-Aldrich), supplemented with cOmplete Mini EDTA-free protease inhibitor cocktail (Roche). Insoluble material was removed by centrifugation at 14 000 rpm for 15 min at 4 °C. Supernatant was collected and protein concentration was quantified by Bradford assay (Thermo Scientific no. 23200, mean of two replicates). For RI-1 cells, (1–1.5) × 10^6 cells/mL were seeded in 6-well plate in 2 mL of medium. The day after, cells were treated with compounds at the desired concentration, with final DMSO concentration of 0.1% v/v. Before harvesting, cells were incubated at 37 °C and 5% CO2 for the desired time. Cells were washed twice with DPBS (Gibco) and lysed with RIPA buffer (Sigma-Aldrich), supplemented with cOmplete Mini EDTA-free protease inhibitor cocktail (Roche). Lysates were sonicated (10 s) and centrifuged at 14 000 rpm for 20 min at 4 °C. Supernatant was collected, and protein concentration was quantified by Bradford assay (mean of two replicates). For EOL-1 and A-204 cell line, 20 000 cells were seeded in 300 μL per well in a 24-well plate and incubated at 37 °C overnight. Compounds were added from DMSO stock solution using a digital dispenser D300 (Tecan), normalizing for added DMSO, and cells were incubated at 37 °C for 18 h. Medium was removed, and cells were washed with PBS and lysed in 80 μL of lysis buffer (1% Triton, 350 mM KCl, 10 mM Tris, pH 7,4, phosphatase-protease inhibitor cocktail (Thermo Scientific no. 1861281), 10 mM DTT, Benzonase 0.5 μL/ml (Novagen no. 70746 10KU, 25 U/μL)) for 30 min on ice before insoluble debris was pelleted by centrifugation.
Proteins were resolved by SDS–PAGE on NuPage 4–12% Bis-Tris Midi Gel (Invitrogen) and transferred to Amersham Protran 0.45 NC nitrocellulose membrane (GE Healthcare) using wet transfer. The membrane was blocked with 5% w/v milk in Tris-buffered saline (TBS) with 0.1% w/v Tween-20. The following primary antibodies at the given concentration were used: anti β-actin (Cell Signaling Technology, 4970S, 13E5) 1:2000, anti-Brd9 (Bethyl A303-781A) 1:1000, anti-Brd7 (Bethyl A302-304A) 1:1000, VHL rabbit Ab (Cell Signaling Technology, no. 68547S) 1:1000, anti-CRBN (Novus Bio, NBP 1-9-1810) 1:1000, anti-actin hFAB rhodamine antibody, Bio-Rad, no. 12004164. Following incubation with horseradish peroxidase-conjugated secondary antibody (Cell Signaling Technology) or IRDye secondary antibody (Licor), bands were developed using Amersham ECL Prime Western blotting detection kit on Amersham Hyperfilm ECL film (Amersham) or ChemiDoc imaging system (Bio-Rad). ImageJ software was used for band quantification, and the last was reported as relative amount as ratio of each protein band relative to the lane’s loading control. Then the values obtained were normalized to 0.1% DMSO vehicle control. Alternatively, protein levels were determined on a WES capillary electrophoresis instrument (Proteinsimple) using a BRD9 antibody (Bethyl A303-781A) and a GAPDH antibody (Abcam no. ab9485) for normalization. DC50 and half-lives were determined by assuming a linear model between the two data points across 50% protein level mark.

For `COc1cc(-c2cn(C)c(=O)c3cnccc23)cc(OC)c1CN1CCN(CCOCCOCCOCCOCC(=O)NCCNc2cccc3c2C(=O)N(C2CCC(=O)NC2=O)C3=O)CC1` (stereo not drawn) [Compound 8, 14-(4-(2,6-Dimethoxy-4-(2-methyl-1-oxo-1,2-dihydro-2,7-naphthyridin-4-yl)benzyl)piperazin-1-yl)-N-(2-((2-(2,6-dioxopiperidin-3-yl)-1,3-dioxoisoindolin-4-yl)amino)ethyl)-3,6,9,12-tetraoxatetradecanamide], the BRD9 degradation result on BRD9 (4 h) was “strong degradation”. Besides, the BRD7 degradation result at BRD7 (4 h) is given as “no BRD7 degradation”.
Consider `COc1cc(-c2cn(C)c(=O)c3cnccc23)cc(OC)c1CN1CCN(C(=O)COCCOCCOCC(=O)N[C@H](C(=O)N2C[C@H](O)C[C@H]2C(=O)NCc2ccc(-c3scnc3C)cc2)C(C)(C)C)CC1` [Compound 25], for which the remaining activity at 1 µM turned out to be 74% at BRD9 (4 h, read-out: BRD9 4 h (%)); 73% at BRD9 (16 h, read-out: BRD9 16 h (%)); 95% at BRD7 (4 h, read-out: BRD7 4 h (%)); 113% on BRD7 (16 h, read-out: BRD7 16 h (%)).
For the molecule `COc1cc(-c2cn(C)c(=O)c3cnccc23)cc(OC)c1CN1CCN(CCOCCOCC(=O)NCCNc2cccc3c2C(=O)N(C2CCC(=O)NC2=O)C3=O)CC1` (stereo not drawn) [Compound 7, 2-(2-(2-(4-(2,6-Dimethoxy-4-(2-methyl-1-oxo-1,2-dihydro-2,7-naphthyridin-4-yl)benzyl)piperazin-1-yl)ethoxy)ethoxy)-N-(2-((2-(2,6-dioxopiperidin-3-yl)-1,3-dioxoisoindolin-4-yl)amino)ethyl)acetamide], the BRD9 degradation result at BRD9 (4 h) is “strong degradation”. Besides, the BRD7 degradation entry at BRD7 (4 h) was “no BRD7 degradation”.
On to `COc1cc(-c2cn(C)c(=O)c3cnccc23)cc(OC)c1CN1CCN(CCOCCOCCOCCOCC(=O)N[C@H](C(=O)N2C[C@H](O)C[C@H]2C(=O)NCc2ccc(-c3scnc3C)cc2)C(C)(C)C)CC1` [Compound 6, (2S,4R)-1-((S)-2-(tert-Butyl)-17-(4-(2,6-dimethoxy-4-(2-methyl-1-oxo-1,2-dihydro-2,7-naphthyridin-4-yl)benzyl)piperazin-1-yl)-4-oxo-6,9,12,15-tetraoxa-3-azaheptadecanoyl)-4-hydroxy-N-(4-(4-methylthiazol-5-yl)benzyl)pyrrolidine-2-carboxamide], for which the remaining activity at 1 µM on BRD9 (4 h, read-out: BRD9 4 h (%)) was found to be 99%; at BRD7 (4 h, read-out: BRD7 4 h (%)), 102%; at BRD7 (16 h, read-out: BRD7 16 h (%)), 119%. The BRD9 degradation result is “at most 20%” at BRD9 (4 h) and not above 30% on BRD9 (16 h). Also, the results for the BRD7 degradation result at BRD7 (4 h) and on BRD7 (16 h) were “at most 20%” and not above 30%, respectively.
